Values quoted from earlier work as cited in patent US12594266B2, “Triterpenoid antifungals for the treatment or prevention of Pneumocystis spp. pneumonia” (priority 2019, dated 2026).
Like-named read-outs stand apart in the source and are kept apart here. *1 amine or outer side, *2 acyl side, *3 side chain or, on linkers, in order; H or OH if unused. Where a SMILES comes first, the peptide text is derived from it. Bridges are numbered along the chain shown (N, C = ends). [ ]: non-standard residue; d: D form. The star is where a group is joined. hTyr(3S-OH,4S-OH,3'-OSO3H) = N[C@H](C(=O)O)[C@H](O)[C@@H](O)c1ccc(O)c(OS(=O)(=O)O)c1; Orn(4R-OH,5R-OH) = O=C([C@H](C[C@@H](O)[C@@H](O)N[*:3])N[*:1])[*:2]; Pro(3S-OH,4S-Me) = C[C@H]1CN[C@H](C(=O)O)[C@H]1O; X1 = CCCCCOc1ccc(-c2cc(-c3ccc(C(=O)*)cc3)no2)cc1; Gln(3R-OH) = NC(=O)C[C@@H](O)[C@H](N)C(=O)O; Hyp = O=C(O)[C@@H]1C[C@@H](O)CN1

Assays:
[1] = test system: Pneumocystis spp.; details: cited from earlier work; for relative effectiveness among echinocandins: murine PCP
[2] = total radioactivity, 15 mg/kg oral, male pigmented Long-Evans rats, cited from earlier work

Question: With CC[C@H](C)C[C@H](C)CCCCCCCCC(=O)N[C@H]1C[C@@H](O)[C@@H](NCCN)NC(=O)[C@@H]2[C@@H](O)CCN2C(=O)[C@H]([C@H](O)CCN)NC(=O)[C@H]([C@H](O)[C@@H](O)c2ccc(O)cc2)NC(=O)[C@@H]2C[C@@H](O)CN2C(=O)[C@H]([C@@H](C)O)NC1=O [caspofungin] as the compound, how does the “relative effectiveness among echinocandins” value [1] read?
Answer: most effective

Question: Which “trophic burden versus untreated control mice” value ([1]; any dose, intraperitoneal, 3 weeks) does the source give for CCCCCOc1ccc(-c2cc(-c3ccc(C(=O)N[C@H]4C[C@@H](O)[C@@H](O)NC(=O)[C@@H]5[C@@H](O)[C@@H](C)CN5C(=O)[C@H]([C@H](O)CC(N)=O)NC(=O)[C@H]([C@H](O)[C@@H](O)c5ccc(O)c(OS(=O)(=O)O)c5)NC(=O)[C@@H]5C[C@@H](O)CN5C(=O)[C@H]([C@@H](C)O)NC4=O)cc3)no2)cc1 [micafungin] (X1-[Orn(4R-OH,5R-OH)]T[Hyp][hTyr(3S-OH,4S-OH,3'-OSO3H)][Gln(3R-OH)][Pro(3S-OH,4S-Me)]; lactam 1-C) here?
Answer: no significant reduction

Question: What about the “relative effectiveness among echinocandins” value [1] of the same compound?
Answer: least effective

Question: For CC(C)[C@@H](C)[C@@]1(C)CC[C@]2(C)[C@H]3CC[C@@H]4[C@@]5(COC[C@]4(C)[C@@H](OC[C@](C)(N)C(C)(C)C)[C@H](n4ncnc4-c4ccncc4)C5)C3=CC[C@@]2(C)[C@@H]1C(=O)O [[^14C]-SCY-078], which AUCall ([2]; Adrenal gland) is on record?
Answer: 321.126 μg equiv*h/g

Question: And the “Tissue:Blood AUC Ratio” value ([2]; Adrenal gland)?
Answer: 48.431

Question: And the AUCall ([2]; Blood (cardiac))?
Answer: 6.631 μg equiv*h/g

Question: What about the “Tissue:Blood AUC Ratio” value ([2]; Blood (cardiac)) of the same compound?
Answer: 1.000

Question: What about the AUCall ([2]; Bone marrow (femur)) of the same compound?
Answer: 238.388 μg equiv*h/g

Question: And the “Tissue:Blood AUC Ratio” value ([2]; Bone marrow (femur))?
Answer: 35.953

Question: What about the AUCall ([2]; Bone) of the same compound?
Answer: 9.022 μg equiv*h/g

Question: And the “Tissue:Blood AUC Ratio” value ([2]; Bone)?
Answer: 1.361

Question: What about the AUCall ([2]; Brain (cerebrum)) of the same compound?
Answer: 0.727 μg equiv*h/g

Question: And the “Tissue:Blood AUC Ratio” value ([2]; Brain (cerebrum))?
Answer: 0.110

Question: What about the AUCall ([2]; Cecum) of the same compound?
Answer: 83.542 μg equiv*h/g

Question: What about the “Tissue:Blood AUC Ratio” value ([2]; Cecum) of the same compound?
Answer: 12.600

Question: And the AUCall ([2]; Epididymis)?
Answer: 75.355 μg equiv*h/g

Question: And the “Tissue:Blood AUC Ratio” value ([2]; Epididymis)?
Answer: 11.365

Question: What about the AUCall ([2]; Esophagus) of the same compound?
Answer: 41.430 μg equiv*h/g

Question: And the “Tissue:Blood AUC Ratio” value ([2]; Esophagus)?
Answer: 6.248

Question: And the AUCall ([2]; Exorbital gland)?
Answer: 523.676 μg equiv*h/g

Question: And the “Tissue:Blood AUC Ratio” value ([2]; Exorbital gland)?
Answer: 78.980

Question: What about the AUCall ([2]; Eye (lens)) of the same compound?
Answer: 0.084 μg equiv*h/g

Question: What about the “Tissue:Blood AUC Ratio” value ([2]; Eye (lens)) of the same compound?
Answer: 0.013

Question: What about the AUCall ([2]; Eye (uvea)) of the same compound?
Answer: 777.035 μg equiv*h/g

Question: What about the “Tissue:Blood AUC Ratio” value ([2]; Eye (uvea)) of the same compound?
Answer: 117.191

Question: What about the AUCall ([2]; Heart (myocardium)) of the same compound?
Answer: 66.558 μg equiv*h/g

Question: And the “Tissue:Blood AUC Ratio” value ([2]; Heart (myocardium))?
Answer: 10.038

Question: What about the AUCall ([2]; Kidney (cortex)) of the same compound?
Answer: 165.880 μg equiv*h/g

Question: And the “Tissue:Blood AUC Ratio” value ([2]; Kidney (cortex))?
Answer: 25.018

Question: And the AUCall ([2]; Kidney (medulla))?
Answer: 136.610 μg equiv*h/g

Question: And the “Tissue:Blood AUC Ratio” value ([2]; Kidney (medulla))?
Answer: 20.603

Question: What about the AUCall ([2]; Large intestine) of the same compound?
Answer: 57.682 μg equiv*h/g

Question: What about the “Tissue:Blood AUC Ratio” value ([2]; Large intestine) of the same compound?
Answer: 8.727

Question: And the AUCall ([2]; Liver)?
Answer: 374.517 μg equiv*h/g

Question: What about the “Tissue:Blood AUC Ratio” value ([2]; Liver) of the same compound?
Answer: 56.484

Question: And the AUCall ([2]; Lung)?
Answer: 175.593 μg equiv*h/g

Question: And the “Tissue:Blood AUC Ratio” value ([2]; Lung)?
Answer: 26.483

Question: What about the AUCall ([2]; Lymph node) of the same compound?
Answer: 251.036 μg equiv*h/g

Question: And the “Tissue:Blood AUC Ratio” value ([2]; Lymph node)?
Answer: 37.861

Question: And the AUCall ([2]; Oral mucosa)?
Answer: 36.782 μg equiv*h/g

Question: What about the “Tissue:Blood AUC Ratio” value ([2]; Oral mucosa) of the same compound?
Answer: 5.547

Question: What about the AUCall ([2]; Pancreas) of the same compound?
Answer: 110.455 μg equiv*h/g

Question: What about the “Tissue:Blood AUC Ratio” value ([2]; Pancreas) of the same compound?
Answer: 16.659

Question: And the AUCall ([2]; Pituitary)?
Answer: 640-809 μg equiv*h/g

Question: What about the “Tissue:Blood AUC Ratio” value ([2]; Pituitary) of the same compound?
Answer: 96.645

Question: And the AUCall ([2]; Prostate gland)?
Answer: 61.301 μg equiv*h/g

Question: And the “Tissue:Blood AUC Ratio” value ([2]; Prostate gland)?
Answer: 9.245

Question: And the AUCall ([2]; Salivary gland)?
Answer: 149.193 μg equiv*h/g

Question: What about the “Tissue:Blood AUC Ratio” value ([2]; Salivary gland) of the same compound?
Answer: 22.501

Question: And the AUCall ([2]; Seminal vesicle)?
Answer: 26.827 μg equiv*h/g

Question: What about the “Tissue:Blood AUC Ratio” value ([2]; Seminal vesicle) of the same compound?
Answer: 4.046

Question: And the AUCall ([2]; Skeletal muscle)?
Answer: 28.304 μg equiv*h/g

Question: And the “Tissue:Blood AUC Ratio” value ([2]; Skeletal muscle)?
Answer: 4.269

Question: What about the AUCall ([2]; Skin (non-pigmented)) of the same compound?
Answer: 74.884 μg equiv*h/g

Question: What about the “Tissue:Blood AUC Ratio” value ([2]; Skin (non-pigmented)) of the same compound?
Answer: 11.294

Question: What about the AUCall ([2]; Skin (pigmented)) of the same compound?
Answer: 110.249 μg equiv*h/g

Question: What about the “Tissue:Blood AUC Ratio” value ([2]; Skin (pigmented)) of the same compound?
Answer: 16.627

Question: What about the AUCall ([2]; Small intestine) of the same compound?
Answer: 141.607 μg equiv*h/g

Question: What about the “Tissue:Blood AUC Ratio” value ([2]; Small intestine) of the same compound?
Answer: 21.357

Question: What about the AUCall ([2]; Spleen) of the same compound?
Answer: 507.638 μg equiv*h/g

Question: And the “Tissue:Blood AUC Ratio” value ([2]; Spleen)?
Answer: 75.561

Question: What about the AUCall ([2]; Stomach (gastric mucosa)) of the same compound?
Answer: 181.074 μg equiv*h/g

Question: And the “Tissue:Blood AUC Ratio” value ([2]; Stomach (gastric mucosa))?
Answer: 27.309

Question: And the AUCall ([2]; Testis)?
Answer: 64.972 μg equiv*h/g

Question: What about the “Tissue:Blood AUC Ratio” value ([2]; Testis) of the same compound?
Answer: 9.799

Question: And the AUCall ([2]; Thymus)?
Answer: 195.608 μg equiv*h/g

Question: And the “Tissue:Blood AUC Ratio” value ([2]; Thymus)?
Answer: 29.501

Question: And the AUCall ([2]; Thyroid)?
Answer: 291.187 μg equiv*h/g

Question: And the “Tissue:Blood AUC Ratio” value ([2]; Thyroid)?
Answer: 43.916

Question: And the AUCall ([2]; Urinary bladder)?
Answer: 45.955 μg equiv*h/g

Question: And the “Tissue:Blood AUC Ratio” value ([2]; Urinary bladder)?
Answer: 6.931
